Data: the NIST ThermoML archive (doi:10.1021/je050376y)

Key:
[1] = xn = mol fraction of the nth substance listed; settings: 101 kPa, Liquid
[2] = 101 kPa, Liquid

Cc1ccc(O)cc1 [4-methylphenol] + CO
[1]
Settings	mass density, 308.15 K [kg/m3]	mass density, 313.15 K [kg/m3]	mass density, 318.15 K [kg/m3]	mass density, 323.15 K [kg/m3]	mass density, 328.15 K [kg/m3]	viscosity, 308.15 K [mPa·s]	viscosity, 313.15 K [mPa·s]	viscosity, 318.15 K [mPa·s]	viscosity, 323.15 K [mPa·s]	viscosity, 328.15 K [mPa·s]
x1 = 0.1	837.27	832.69	828.09	823.45	819.09	0.701	0.652	0.608	0.568	0.533
x1 = 0.1999	881.21	876.78	872.35	867.89	863.71	0.977	0.901	0.834	0.772	0.719
x1 = 0.2998	914.53	910.25	905.93	901.61	897.58	1.333	1.218	1.112	0.998	0.942
x1 = 0.4	940.54	936.35	932.16	927.93	924.03	1.762	1.588	1.435	1.305	1.192
x1 = 0.4999	961.59	957.48	953.35	949.21	945.39	2.316	2.044	1.817	1.633	1.477
x1 = 0.5999	977.95	973.9	969.84	965.76	962.01	3.021	2.631	2.31	2.043	1.821
x1 = 0.6999	992.04	988.04	984.03	980	976.3	3.928	3.36	2.894	2.527	2.229
x1 = 0.8	1003.53	999.57	995.58	991.58	987.91	5.072	4.251	3.603	3.092	2.688
x1 = 0.8999	1013.73	1009.79	1005.83	1001.84	998.2	6.535	5.364	4.44	3.754	3.212
x1 = 1	1021.98	1018.05	1014.09	1010.12	1006.57	8.444	6.745	5.471	4.532	3.888

CO [methanol]
[2]
Settings	mass density [kg/m3]	viscosity [mPa·s]
308.15 K	776.92	0.476
313.15 K	772.13	0.445
318.15 K	767.31	0.421
323.15 K	762.46	0.395
328.15 K	757.85	0.372

CO [methanol] + Cc1ccc(O)cc1
[1], x2 = 0
Settings	mass density [kg/m3]	viscosity [mPa·s]
308.15 K	776.92	0.476
313.15 K	772.13	0.445
318.15 K	767.31	0.421
323.15 K	762.46	0.395
328.15 K	757.85	0.372
